# Reference: the SangsterLogP compilation
# Settings: pH 7.4
row,SMILES,logD
1,CC1(C)COCc2sc(N3CCN(C(=O)[C@@H]4CCCC[C@H]4C(=O)NC4(C#N)CC4)CC3)nc21,2.4
2,CS(=O)(=O)c1ccc2c3c([nH]c2c1)CCN(C(=O)[C@@H]1CCCC[C@H]1C(=O)NC1(C#N)CC1)C3,1.5
3,C[C@H]1O[C@@H](n2cnc3c(N)nc(OCC4CC45CC5)nc32)[C@H](O)[C@@H]1O (some centres undefined),1.78
4,C[C@H]1O[C@@H](n2cnc3c(N)nc(O[C@H]4CC[C@H](C)CC4)nc32)[C@H](O)[C@@H]1O,2.35
5,N#CC1(NC(=O)[C@@H]2CCCC[C@H]2C(=O)N2CCc3[nH]c4ccc(Cl)cc4c3C2)CC1,3.65
6,CS(=O)(=O)c1ccc2nc(N3CCN(C(=O)[C@@H]4CCCC[C@H]4C(=O)NC4(C#N)CC4)CC3)sc2c1,1.49
7,Cc1nn(C)c2cc(N3CCN(C(=O)[C@@H]4CCCC[C@H]4C(=O)NC4(C#N)CC4)[C@H](C)C3)ccc12,2.7
8,N#CC1(NC(=O)[C@@H]2CCCC[C@H]2C(=O)N2CCN(c3nc4c(s3)COCC4)CC2)CC1,1.42
9,Cc1cccc2c3c([nH]c12)CCN(C(=O)[C@@H]1CCCC[C@H]1C(=O)NC1(C#N)CC1)C3,2.99
10,CS(=O)(=O)Cc1cc(N2CCOCC2)nc(-c2ccc(NS(C)(=O)=O)cc2)n1,0.85
11,Cc1ncc(-c2nc(Nc3ccc(N4CCOCC4)cc3)ncc2F)n1C(C)C,3.01
12,Cc1cc(C(C)Nc2ccccc2)c2nc(N3CCOCC3)cc(=O)n2c1 (centres undefined),3.6
13,N#Cc1ccc(CN2CCN(c3ccc4nnc(C(F)(F)F)n4n3)CC2)cc1,2.9
14,N#CC1(NC(=O)[C@@H]2CCCC[C@H]2C(=O)N2CCc3[nH]c4c(C(F)(F)F)cccc4c3C2)CC1,3.75
15,CC(C)(C)OC(=O)N1CCN(c2ncc(OCc3ccncc3F)cn2)CC1,3.6
16,C[C@H](C#N)NC(=O)[C@@H]1CCCC[C@H]1C(=O)N1CCc2[nH]c3ccc(F)cc3c2C1,3.1
17,COc1ccc(N2CCN(C(=O)[C@@H]3CCCC[C@H]3C(=O)NC3(C#N)CC3)[C@H](C)C2)cc1OC,1.85
18,CCCCN1Cc2c(nc3cc(-c4ccco4)[nH]n3c2=O)C1=O,0.8
19,N#CC1(NC(=O)[C@@H]2CCCC[C@H]2C(=O)N2CCc3[nH]c4c(F)cccc4c3C2)CC1,3.03

# Continued, values first:
row,logD,SMILES
1,3.3,CN(C(=O)Cc1ccc(-n2cnnn2)cc1)[C@H]1CCN(Cc2ccc(C(F)(F)F)cc2)C[C@H]1F
2,1.34,O=S(=O)(Cc1cc(N2CCOCC2)nc(-c2ccccn2)n1)c1ccccc1
3,3.4,CC(C)(C)OC(=O)N1CCN(c2cnc(OCc3ccc(S(C)(=O)=O)cc3)cn2)CC1
4,1.52,Cc1nc2nc(-c3cccnc3)[nH]n2c(=O)c1Cc1ccccc1
5,1.97,COc1cc(OC)c(S(=O)(=O)N2c3ccccc3CCC2C)cc1NC(C)=O (centres undefined)
6,2.7,NS(=O)(=O)c1ccc(Nc2nccc(-c3cnc4ccccn34)n2)cc1
7,3.4,CC(C)(C)OC(=O)N1C[C@@H]2CC[C@H]1CN2c1ncc(OCc2ccc(S(C)(=O)=O)cc2)cn1
8,3.1,COc1cc2ncnc(Nc3cccc(Cl)c3F)c2cc1OC1CCN(CC(N)=O)CC1
9,2.91,CCNC(=O)c1cc2c(-n3ccc(C(F)(F)F)n3)c(-c3cc(-c4n[nH]c(=O)o4)cnc3OC)cnc2[nH]1
10,3.37,COc1cc(OC)c(S(=O)(=O)N2c3ccccc3Oc3ccccc32)cc1NC(=O)Cc1ccnc(F)c1
